pIC50: −log10 of the molar value.
Target: Glutamate NMDA receptor
Experiment: Compound was evaluated for its ability to displace […] binding for NMDA receptor
Type: protein-complex assay

SMILES | pIC50
O=C(O)C1CN(CCCP(=O)(O)O)CCN1 (stereo not drawn) | 7.55
NC(CC(N)C(=O)O)CP(=O)(O)O (stereo not drawn) | 5.84
NC(CC(O)CP(=O)(O)O)C(=O)O (stereo not drawn) | 6.89
NC(CC(CP(=O)(O)O)S(=O)O)C(=O)O (stereo not drawn) | 6.62
O=C(O)C1CC(CP(=O)(O)O)N=CN1 (stereo not drawn) | 5.23
NC(CCCP(=O)(O)O)CC(N)C(=O)O (stereo not drawn) | 5.64
O=C(O)C1CC(CCCP(=O)(O)O)N=CN1 (stereo not drawn) | 6.38
O=C(O)[C@@H]1C[C@H](CP(=O)(O)O)CCN1 [SELFOTEL] | 7.62

— ChEMBL document CHEMBL1150499, “Excitatory amino acids: 6-phosphonomethyltetrahydro-4-pyrimidinecarboxylic acids and their acyclic analogues are competitive N-methyl-D-aspartic acid receptor antagonists” (Bioorg Med Chem Lett, 1992)
